Measured values as given in patent US12208088B2 (Genentech, Inc., priority 2018, dated 2025).

Target: HPK1 (Homo sapiens (Human), UniProt Q92918)
Experiment: HPK1 Lantha binding assay ("Lanth")
Details: binding assays; Morrison Ki fit
Protocol: Example B2: HPK1 Lantha Binding Assay (“Lanth”)
Procedure: I. Compound Dilution:
The compounds to be tested were diluted by preparing 12.5 uL/well of 5 mM compound (100×) in columns 2 and 13 and 10 ul/well of DMSO in columns 3-12, 14-23, and wells A1-H1 and I24-P24 of the compound plate using a Bravo liquid handling platform. For the reference compound, the top concentration was 1 mM. To the plate was added 10 ul 2 mM staurosporine in wells J1-P1 and A24-H24. A 11 point 5-fold compound serial dilution was performed using the Bravo liquid handling platform. From the plate were transferred 2.5 ul of the solutions from column 2 and column 13 to the 10 ul of DMSO in columns 3 and 14 & so on. The compound plate was centrifuged at 2500 rpm for 1 min. From the compound plate was transferred 80 nl of the compounds into an assay plate using the Echo liquid handler system. One compound plate makes two assay plates. Each assay plate is sealed and stored in an N2 cabinet.
The following assay concentrations and times were used: 2 nM HPK1, 2 nM Eu-Anti-GST Ab, and 15 nM Tracer222, with 60 min incubation time.
III. HPK Lantha Binding Assay:
For the binding assay, 4 ul 2×HPK1 and Eu-anti-GST antibody were added to each well of the assay plate using a Multidrop reagent dispenser. The solutions were incubated in a 23 C incubator for 1 h. To each well of the assay plate was added 4 ul 2× Tracer-222 using a Multidrop reagent dispenser. The solutions were again incubated in a 23 C incubator for 1 h. The results of the assay were read using an Envision plate reader with the following parameters: TR_FRET, 340 ex/615 and 665em; 100 usec Delay; and 200 usec integration.
Compound Ki was analyzed using Morrison ki fit model in XL-fit • a. fit=(1−((((E+x)+(Ki*(1+(S/Kd))))−(((((E+x)+(Ki*(1+(S/Kd))))^2)−((4*E)*x))^0.5))/(2*E))) • res=(y−fit) • b. Parameters: • E=enzyme concentration • S=Tracer222 concentration, Kd=Tracer222 Kd • All measurements reported using the same units (uM)
Exemplary compounds were tested in the binding assays.

HPK1, sequence (Q92918 1-346 limits assumed): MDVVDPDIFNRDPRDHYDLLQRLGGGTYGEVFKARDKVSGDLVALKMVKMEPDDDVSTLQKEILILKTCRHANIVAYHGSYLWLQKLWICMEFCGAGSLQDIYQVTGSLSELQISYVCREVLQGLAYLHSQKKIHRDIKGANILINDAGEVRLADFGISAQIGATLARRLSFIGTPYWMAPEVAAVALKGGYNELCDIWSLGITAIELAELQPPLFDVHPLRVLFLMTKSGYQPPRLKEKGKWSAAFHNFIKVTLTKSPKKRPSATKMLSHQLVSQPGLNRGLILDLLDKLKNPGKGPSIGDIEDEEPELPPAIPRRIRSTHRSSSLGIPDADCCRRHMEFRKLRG

Ki [nM] | Compound
103 | 1-(3-(1′,2′-Dihydrospiro[cyclopropane-1,3′-pyrrolo[2,3-b]pyridin]-5′-yl)phenyl)piperazin-2-one [Compound 41]
74.2 | O=C1NCCC1c1nc2ccc(-c3cnc4c(c3Cl)C3(CC3)CN4)cc2[nH]1 (racemic) [Compound 283, (±)-3-(6-(4′-Chloro-1′,2′-dihydrospiro[cyclopropane-1,3′-pyrrolo[2,3-b]pyridin]-5′-yl)-1H-benzo[d]imidazol-2-yl)pyrrolidin-2-one]
39.6 | CO[C@@H]1CC[C@@]2(CNc3ncc(-c4ccc(N)c(C(=O)N(C)C)c4F)c(Cl)c32)C1 (relative stereo) [Compound 81a, 6-Amino-3-((1R,3R)-4′-chloro-3-methoxy-1′,2′-dihydrospiro[cyclopentane-1,3′-pyrrolo[2,3-b]pyridin]-5′-yl)-2-fluoro-N,N-dimethylbenzamide]
17.7 | CO[C@H]1CC[C@@]2(CNc3ncc(-c4ccc(N)c(C(=O)N(C)C)c4F)c(Cl)c32)C1 (relative stereo) [Compound 81c, 6-Amino-3-((1R,3S)-4′-chloro-3-methoxy-1′,2′-dihydrospiro[cyclopentane-1,3′-pyrrolo[2,3-b]pyridin]-5′-yl)-2-fluoro-N,N-dimethylbenzamide]
8.12 | CN(C)C(=O)c1c(N)ccc(-c2cnc3c(c2Cl)[C@]2(CC[C@](C)(O)C2)CN3)c1F (relative stereo) [Compound 82a, 6-Amino-3-((1R,3S)-4′-chloro-3-hydroxy-3-methyl-1′,2′-dihydrospiro[cyclopentane-1,3′-pyrrolo[2,3-b]pyridin]-5′-yl)-2-fluoro-N,N-dimethylbenzamide]
25.9 | CN(C)C(=O)c1c(N)ccc(-c2cnc3c(c2Cl)[C@]2(CC[C@@H](C(N)=O)C2)CN3)c1F (relative stereo) [Compound 84a, (1R,3R)-5′-(4-amino-3-(dimethylcarbamoyl)-2-fluorophenyl)-4′-chloro-1′,2′-dihydrospiro[cyclopentane-1,3′-pyrrolo[2,3-b]pyridine]-3-carboxamide]
2.07 | CN(C)C(=O)c1c(N)ccc(-c2cnc3c(c2Cl)[C@]2(CC[C@H](C(N)=O)C2)CN3)c1F (relative stereo) [Compound 84c, (1R,3S)-5′-(4-amino-3-(dimethylcarbamoyl)-2-fluorophenyl)-4′-chloro-1′,2′-dihydrospiro[cyclopentane-1,3′-pyrrolo[2,3-b]pyridine]-3-carboxamide]
7.9 | C[C@H]1C[C@@]12CNc1ncc(-c3ccc(N)c(C(=O)N(C)C)c3F)cc12 (relative stereo) [Compound 86a, 6-Amino-2-fluoro-N,N-dimethyl-3-((1R,2S)-2-methyl-1′,2′-dihydrospiro[cyclopropane-1,3′-pyrrolo[2,3-b]pyridin]-5′-yl)benzamide]
6 | CN(C)C(=O)c1c(N)ccc(-c2cnc3c(c2Cl)[C@]2(CC[C@H](n4nccn4)C2)CN3)c1F (relative stereo) [Compound 89a, 6-Amino-3-((1R,3S)-4′-chloro-3-(2H-1,2,3-triazol-2-yl)-1′,2′-dihydrospiro[cyclopentane-1,3′-pyrrolo[2,3-b]pyridin]-5′-yl)-2-fluoro-N,N-dimethylbenzamide]
5.53 | CN(C)C(=O)c1c(N)ccc(-c2cnc3c(c2Cl)[C@]2(CC[C@H](C#N)C2)CN3)c1F (relative stereo) [Compound 91a, 6-Amino-3-((1R,3S)-4′-chloro-3-cyano-1′,2′-dihydrospiro[cyclopentane-1,3′-pyrrolo[2,3-b]pyridin]-5′-yl)-2-fluoro-N,N-dimethylbenzamide]
75.6 | CNC(=O)[C@H]1CC[C@@]2(CNc3ncc(-c4ccc(N)c(C(=O)N(C)C)c4F)c(Cl)c32)C1 (relative stereo) [Compound 98a, (1R,3S)-5′-(4-Amino-3-(dimethylcarbamoyl)-2-fluorophenyl)-4′-chloro-N-methyl-1′,2′-dihydrospiro[cyclopentane-1,3′-pyrrolo[2,3-b]pyridine]-3-carboxamide]
23.6 | CN(C)C(=O)c1c(N)ccc(-c2cnc3c(c2Cl)[C@]2(CC[C@H](C(=O)NCCO)C2)CN3)c1F (relative stereo) [Compound 106a, (1R,3S)-5′-(4-Amino-3-(dimethylcarbamoyl)-2-fluorophenyl)-4′-chloro-N-(2-hydroxyethyl)-1′,2′-dihydrospiro[cyclopentane-1,3′-pyrrolo[2,3-b]pyridine]-3-carboxamide]
8.27 | Cc1noc([C@H]2CC[C@@]3(CNc4ncc(-c5ccc(N)c(C(=O)N(C)C)c5F)c(Cl)c43)C2)n1 (relative stereo) [Compound 108a, 6-Amino-3-((1R,3S)-4′-chloro-3-(3-methyl-1,2,4-oxadiazol-5-yl)-1′,2′-dihydrospiro[cyclopentane-1,3′-pyrrolo[2,3-b]pyridin]-5′-yl)-2-fluoro-N,N-dimethylbenzamide]
32.5 | CN(C)C(=O)c1c(N)ccc(-c2cnc3c(c2Cl)[C@]2(CC[C@@](O)(CC#N)C2)CN3)c1F (relative stereo) [Compound 109c, 6-Amino-3-((1R,3S)-4′-chloro-3-(cyanomethyl)-3-hydroxy-1′,2′-dihydrospiro[cyclopentane-1,3′-pyrrolo[2,3-b]pyridin]-5′-yl)-2-fluoro-N,N-dimethylbenzamide]
2.84 | Cc1cnn([C@H]2CC[C@@]3(CNc4ncc(-c5ccc(N)c(C(=O)N(C)C)c5F)c(Cl)c43)C2)n1 (relative stereo) [Compound 114a, 6-Amino-3-((1R,3S)-4′-chloro-3-(4-methyl-2H-1,2,3-triazol-2-yl)-1′,2′-dihydrospiro[cyclopentane-1,3′-pyrrolo[2,3-b]pyridin]-5′-yl)-2-fluoro-N,N-dimethylbenzamide]
23 | CN(C)C(=O)c1c(N)ccc(-c2cnc3c(c2Cl)[C@]2(CC[C@H](N4CCNC4=O)C2)CN3)c1F (relative stereo) [Compound 115a, 6-Amino-3-((1R,3S)-4′-chloro-3-(2-oxoimidazolidin-1-yl)-1′,2′-dihydrospiro[cyclopentane-1,3′-pyrrolo[2,3-b]pyridin]-5′-yl)-2-fluoro-N,N-dimethylbenzamide]
153 | CN(C)C(=O)c1c(N)ccc(-c2cnc3c(c2Cl)[C@]2(CC[C@@](O)(Cn4cncn4)C2)CN3)c1F (relative stereo) [Compound 116a]
247 | CN(C)C(=O)c1c(N)ccc(-c2cnc3c(c2Cl)[C@]2(CC[C@@](O)(Cn4ccnc4)C2)CN3)c1F (relative stereo) [Compound 117a, 3-((1R,3S)-3-((1H-Imidazol-1-yl)methyl)-4′-chloro-3-hydroxy-1′,2′-dihydrospiro[cyclopentane-1,3′-pyrrolo[2,3-b]pyridin]-5′-yl)-6-amino-2-fluoro-N, N-dimethylbenzamide]
76.8 | CN(C)C(=O)c1c(N)ccc(-c2cnc3c(c2Cl)[C@]2(CC[C@H](n4cnc(N)n4)C2)CN3)c1F (relative stereo) [Compound 119a, 6-Amino-3-((1R,3S)-3-(3-amino-1H-1,2,4-triazol-1-yl)-4′-chloro-1′,2′-dihydrospiro[cyclopentane-1,3′-pyrrolo[2,3-b]pyridin]-5′-yl)-2-fluoro-N,N-dimethylbenzamide]
